Measured values: EP2435019B1, “DODECA-2E,4E-DIENE AMIDES AND THEIR USE AS MEDICAMENTS AND COSMETICS” (Dr. August Wolff GmbH & Co. KG Arzneimittel, priority 2009, dated 2010)
Read-outs that look alike come from different tables or passages of the source.

Experiments:
IL-8 = assay: Induced chemokine IL-8 in HaCaT keratinocytes; type: cell-based, human; conditions: Figure 6, 5 µM, tolerogen 10 µg/ml, 6h
Description: (§1) • Figure 1: AEA re-uptake inhibition of 2E,4E-dieneamides 1 and 9 into human primary monocytes and U937 cells. […] Data are mean values ± SEM of 3 independent experiments in a sigmoidal dose-response curve. • Figure 2: Concentration-dependent effects of 4 and 5 on FAAH activity. […] The maximal inhibition (32%) of 5 was measured at 1 µM. Data are mean values ± SEM of 3 independent experiments. • Figure 3: Effects of low nM concentrations of N-alkylamide 7 on FAAH activity alone and in combination with the FAAH inhibitor URB597. […] Data are mean values ± SEM of 3 independent experiments. • Figure 4: 1 and 9 inhibit LPS-induced TNF-alpha release into culture medium (measured by ELISA). Human macrophages (10^6 cells) were stimulated with LPS (500 ng/ml) and treated with UCM707 and/or compounds 1 and 9 at 5 µM for 18 h. N = 3 ± SEM. • Figure 5: UCM707 (positive control) and compounds 1 and 9 diminish NO2^- production. Human macrophages (10^6 cells) were stimulated with LPS (500 ng/ml) and treated with UCM707 and/or compounds 1 and 9 at 5 µM for 18 h. Culture supernatants were assayed for nitrite levels, using the Griess reagent as a reflection of NO production. Results are the mean ± SEM of four independent experiments performed in duplicate • Figure 6: In CB receptor expressing human HaCaT keratinocytes (10^6 cells) UCM707 (control) 1 and 9 like the endocannabinoid anandamide (each 5 µM) inhibited tolerogen (10 µg/ml) induced chemokine IL-8 (6h stimulation and incubation). N = 3 ± SEM.

CB1 = biological target: T1, CB1 (Homo sapiens, UniProt P21554); assay: Radioligand displacement assay on CB1 receptor; type: binding; conditions: for affinity towards CB1 (in words): summary of Table 3
T1 construct: purchased Perkin Elmer RBHCB1M
Description: (§2) For the CB1 receptor, binding experiments were performed in the presence of 0.39 nM of the radioligand [^3H]CP55,940 (168 Ci/mmol) (Perkin Elmer, Waltham, MA, US) at 30°C in siliconized glass vials together with 7.16 µg of membrane recombinantly over-expressing CB1 (No. RBHCB1M, Perkin Elmer, Waltham, MA, US), which was resuspended in 0.2 mL (final volume) binding-buffer (50 mM TRIS-HCl, 2.5 mM EGTA, 5 mM MgCl2, 0.5 mg/mL fatty acid free BSA, pH 7.4). Test compounds were present at varying concentrations and the nonspecific binding of the radioligand was determined in the presence of 10 µM CP55,940 (Tocris Cookson Ltd., Bristol, UK). After 1.5 h incubation, the suspension was rapidly filtered through 0.05% polyethylenimine pre-soaked GF/C glass fiber filters on a 96-well cell harvester and washed nine times with 0.5 mL ice-cold washing-buffer (50 mM TRIS-HCl, 2.5 mM EGTA, 5 mM MgCl2, 2% BSA, pH 7.4). Radioactivity on filters was measured with a Beckman LS 6500 scintillation counter in 3 mL Ultima Gold scintillation liquid (Perkin Elmer, Waltham, MA, US). Data collected from three independent experiments performed in triplicates were normalized between 100% and 0% specific binding for [^3H]CP55,940. […] Derived from the dissociation constant (KD) of [^3H]CP55,940 and the concentration-dependent displacement (IC50 value), inhibition constants (Ki) of competitor compounds were calculated using the Cheng-Prusoff equation [Ki = IC50/(1+ L/KD)].

[1] = Critical micelle concentration (CMC) measurement, dye micellization; type: physicochemical; conditions: fluorescein dye micellization in water, pH 6.9, room temperature
Description: Dye micellization was carried out with a modified version of the method described by Eliyahu et al., Novel dextran-spermine conjugates as transfecting agents: comparing water-soluble and micellar polymers. […] Experiments were carried out on 96-well microtiter plates (excitation at 485 nm, emission at 535 nm). Since the emission of fluorescein is pH-dependent, the pH of the mixture was kept constant at 6.9. The CMC range was determined as the concentration range where the first statistically significant increase in fluorescence was detected.

FAAH = biological target: T2, FAAH (Sus scrofa, UniProt Q9TUI8); assay: Fatty acid amide hydrolase (FAAH) inhibition, pig brain homogenate (assay D); type: biochemical; conditions: 1 µM; pig brain homogenate (assay D)
T2 construct: 165 µl of diluted pig brain homogenate; from tissue; host or cells: pig brain homogenate
T2 sequence (Q9TUI8 1-579): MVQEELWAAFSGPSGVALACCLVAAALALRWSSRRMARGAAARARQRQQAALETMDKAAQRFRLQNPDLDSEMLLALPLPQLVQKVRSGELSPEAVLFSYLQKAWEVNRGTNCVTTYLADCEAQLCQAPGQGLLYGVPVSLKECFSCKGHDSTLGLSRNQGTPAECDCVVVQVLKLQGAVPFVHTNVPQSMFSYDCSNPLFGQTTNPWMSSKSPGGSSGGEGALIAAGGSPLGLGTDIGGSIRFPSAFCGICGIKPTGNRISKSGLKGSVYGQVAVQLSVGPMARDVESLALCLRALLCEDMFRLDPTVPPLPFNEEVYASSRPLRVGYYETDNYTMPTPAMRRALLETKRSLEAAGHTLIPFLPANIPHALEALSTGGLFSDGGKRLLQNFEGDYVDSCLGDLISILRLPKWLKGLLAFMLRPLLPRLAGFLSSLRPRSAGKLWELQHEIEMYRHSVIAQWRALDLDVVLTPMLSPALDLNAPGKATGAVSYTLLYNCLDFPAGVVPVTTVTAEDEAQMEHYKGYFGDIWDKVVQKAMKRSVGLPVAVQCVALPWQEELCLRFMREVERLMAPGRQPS
Description: FAAH activity was assessed using pig brain homogenate according to the method described by Omeir et al., Arachidonoyl ethanolamide-[1,2-14C] as a substrate for anandamide amidase. Life Sci. 1995;56(23-24):1999-2005, and adapted by Fowler et al., Ibuprofen inhibits rat brain deamidation of anandamide at pharmacologically relevant concentrations. Mode of inhibition and structure-activity relationship. J Pharmacol Exp Ther. 1997 Nov;283(2):729-34. Briefly, 10 µl of test compounds at the adequate concentration or solvent were incubated at 37°C for 20 min with 165 µl of diluted pig brain homogenate in 10 mM Tris-HCl and 1 mM EDTA, pH 7.6 (corresponding to 100 µg/ml of total protein), 1% w/v fatty acid free BSA (Sigma, San Louis, MO, US) and 25 µl of a mixture 1:1 of nonradioactive AEA [^3H]-AEA (60 Ci mmol^-1) (concentration in the assay was 2 µM). Successively, 400 µl of a mixture 1:1 (v/v) of methanol:chloroform was added at each sample and, after vigorous vortexing, aqueous and organic phases were separated by centrifugation at 10000 rpm for 10 min. The radioactivity associated to the [^3H]-ethanolamine (produced by FAAH-catalysed breakdown of [^3H]-AEA) was measured upon addition of 3 ml of Ultima Gold scintillation liquid (Perkin Elmer, Waltham, MA, US) to 200 µl of the aqueous (upper) phase, using a Beckman LS6500 scintillation counter. Results were expressed as % of FAAH activity vs. pig brain homogenate treated only with solvent.

[2] = system: Arachidonoylethanolamide Transport (AEAT); assay: Cellular uptake of [3H]-AEA in U937 cells (assay C); type: cell-based; conditions: Homo sapiens, U-937; [3H]-AEA uptake, assay C (Tables 2 and 3)
CB2 = CB2 (Homo sapiens, UniProt P34972); assay: Radioligand displacement assay on CB2 receptor; type: binding; parameters: purchased Perkin Elmer RBXCB2M; conditions: for affinity towards CB2 (in words): summary of Table 3
Description: as §2
For CB2-receptor binding studies 3.8 µg of membrane recombinantly over-expressing CB2 (No. RBXCB2M, Perkin Elmer, Waltham, MA, US) were resuspended in 0.6 mL binding buffer (see above) together with 0.11 nM of the radioligand [^3H]CP55,940. The CB2-binding assay was conducted in the same manner as for CB1.

[3] = system: Arachidonoylethanolamide Transport (AEAT); assay: Cellular uptake of [3H]-AEA in U937 cells (assay C); type: cell-based, Human; conditions: Figure 1(b); mean ± SEM of 3 independent experiments; read-out: EC50 value, AEA re-uptake inhibition
Description: 5x10^5 cells were collected and suspended in 500 µL of sterile PBS (Sigma, San Louis, MO, US) using glass silanized tubes. Cells were pre-incubated 10 min at 37°C in presence of test compounds in a concentration range of 10^-8 - 10^-4 M or in presence of the same amount of solvent (control). Then a mixture of 50 nM [^3H]-AEA (60 Ci/mmol) (American Radiolabeled Chemicals, Inc., San Louis, MO, US) and 50 nM of nonradioactive AEA (Tocris Cookson Ltd., Bristol, UK) was added and samples were incubated at 37°C for different times in the range of 1-60 min. The reaction was stopped by rapid filtration over Whatman GF/C filters pre-soaked in 0,25 % BSA. […] The filters-bound radioactivity was measured using a Beckman LS6500 scintillation counter. Results were expressed as % of AEA uptake versus cells treated with solvent and the EC50 and IC50 values were calculated from the sigmoidal curves, which were generated using the GraphPad Prism (GraphPad Software, San Diego, CA, US).

[3H]-AEA uptake = Cellular uptake of [3H]-AEA in human primary monocytes (assay C); type: cell-based; conditions: Figure 1(a), 1 µM
Description: as §1, with “Results are the mean ± SEM of four independent experiments performed in duplicate • Figure 6: In CB receptor expressing human HaCaT keratinocytes (10^6 cells) UCM707 (control) 1 and 9 like the endocannabinoid anandamide (each 5 µM) inhibited tolerogen (10 µg/ml) induced chemokine IL-8 (6h stimulation and incubation). N = 3 ± SEM.” left out
Human lymphoma U937 cells were grown in RPMI 1640 medium (Invitrogen, Basel, Switzerland) supplemented with 10% fetal bovine serum, […] fungizone (amphotericin B), 100 units/ml penicillin, 100 µg/ml streptomycin, and 2 mM L-glutamine (all from Invitrogen) and selected for the cellular AEA uptake assay. […] The filters-bound radioactivity was measured using a Beckman LS6500 scintillation counter. Results were expressed as % of AEA uptake versus cells treated with solvent and the EC50 and IC50 values were calculated from the sigmoidal curves, which were generated using the GraphPad Prism (GraphPad Software, San Diego, CA, US).

NO2^- production = assay: NO2- production in LPS-stimulated human macrophages (Griess reagent); type: cell-based; conditions: Figure 5; LPS 500 ng/ml; 5 µM for 18 h
Description: as §1

T1 sequence (P21554 whole entry): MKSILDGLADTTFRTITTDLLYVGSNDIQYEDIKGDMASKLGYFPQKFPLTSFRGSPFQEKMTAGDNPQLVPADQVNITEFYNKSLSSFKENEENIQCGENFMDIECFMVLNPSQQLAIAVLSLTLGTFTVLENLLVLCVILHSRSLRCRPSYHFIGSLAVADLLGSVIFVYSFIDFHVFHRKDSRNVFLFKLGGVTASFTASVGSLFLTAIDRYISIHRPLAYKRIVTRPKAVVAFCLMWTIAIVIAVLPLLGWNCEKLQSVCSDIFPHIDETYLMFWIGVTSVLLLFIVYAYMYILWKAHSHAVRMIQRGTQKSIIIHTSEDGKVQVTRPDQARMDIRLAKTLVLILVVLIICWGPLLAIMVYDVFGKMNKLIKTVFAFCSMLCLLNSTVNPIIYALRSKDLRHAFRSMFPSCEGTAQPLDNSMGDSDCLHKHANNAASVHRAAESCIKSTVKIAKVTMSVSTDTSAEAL
CB2, sequence (P34972 whole entry): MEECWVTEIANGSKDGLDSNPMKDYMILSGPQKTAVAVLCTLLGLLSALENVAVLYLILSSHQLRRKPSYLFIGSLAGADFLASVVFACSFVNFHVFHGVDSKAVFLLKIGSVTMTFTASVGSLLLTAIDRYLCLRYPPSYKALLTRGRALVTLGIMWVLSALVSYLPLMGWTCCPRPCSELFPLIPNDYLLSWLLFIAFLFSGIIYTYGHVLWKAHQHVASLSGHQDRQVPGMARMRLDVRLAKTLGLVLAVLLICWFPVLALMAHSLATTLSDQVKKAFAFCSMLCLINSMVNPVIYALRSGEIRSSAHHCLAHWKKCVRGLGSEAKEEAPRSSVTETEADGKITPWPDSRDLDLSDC

Row | SMILES | tolerogen induced chemokine IL-8 (IL-8) | Ki (CB1) | affinity towards CB1 (in words) (CB1) | CMC [1] | FAAH inhibition at 1 µM (FAAH) | EC50 [2] | Ki (CB2) | affinity towards CB2 (in words) (CB2) | Ki (CB1; displacement of 0.39 nM [3H]CP55,940, membrane recombinantly over-expressing CB1, read-out: Receptor affinity Ki CB1) | Ki (CB2; displacement of 0.11 nM [3H]CP55,940, membrane recombinantly over-expressing CB2, read-out: Receptor affinity Ki CB2) | EC50 [3] | [3H]-AEA uptake inhibition ([3H]-AEA uptake) | NO2^- production (NO2^- production)
1 | CCCCC/C=C\C/C=C\C/C=C\C/C=C\CCCC(=O)NCCO [anandamide, N-arachidonoylethanolamide, reference compound] | inhibited |  |  |  |  |  |  |  |  |  |  |  | 
2 | CCCCCCC/C=C/C=C/C(=O)NCC(C)CC (racemic) [Compound B, (2E,4E)-N-(2-methylbutyl)dodeca-2,4-diene amide] |  | 1510 ± 214 nM | moderate affinity | >5 µM | <10 % of control | > 10000 nM | 1100 ± 84 nM | moderate affinity |  |  |  |  | 
3 | CCCCCCC/C=C/C=C/C(=O)N1CCCC1 [Compound D, (2E,4E)-1-(pyrrolidin-1-yl)dodeca-2,4-dien-1-one] |  |  |  | >5 µM | <10 % of control | > 10000 nM |  |  | > 20000 nM | < 10000 nM |  |  | 
4 | CCCCC/C=C\C/C=C\C/C=C\C/C=C\CCCC(=O)NCc1ccoc1 [UCM707, reference compound] | inhibited |  |  |  |  |  |  |  |  |  | 1420 ± 296 nM | clearly less active | diminish
5 | CCCCCCC/C=C/C=C/C(=O)NCCC(C)C [Compound C, (2E,4E)-N-isopentyldodeca-2,4-diene amide] |  | > 20000 nM | no affinity | >5 µM | <10 % of control | > 10000 nM | 1455 ± 14 nM | moderate affinity |  |  |  |  | 
